What all share (type): cell-based
For test [1], the system named is NF-κB. Nature of the test: NF-κB SEAP reporter assay in THP-1-Blue NF-κB cells, Pam3CSK4 stimulated. Conditions: THP-1-Blue cells, 1 ng/ml Pam3CSK4, 24 h, read-out: NF-κB Pam3SCK4 IC50. On the procedure: (§1) THP-1-Blue NF-κB cells (InvivoGen) carrying a stable integrated NF-κB-inducible secreted embryonic alkaline phosphatase (SEAP) reporter construct were plated at a concentration of 1×10^5 cells per well. The cells were stimulated with Pam3CSK4 (1 ng/ml) or hIL1B (1 ng/ml). After 10-20 minutes, the cells were then treated with vehicle (DMSO) or serial dilutions of the test compounds (10 doses tested for each test compound, with a […] starting at 1 μM or 3 μM) with a final volume of 200 μL for 24 hours at 37 °C. After 24 hours, the cells were centrifuged and 20 μL supernatant was incubated with 180 μL QUANTI-Blue reagent at 37 °C for 30-60 minutes. The levels of NF-κB-induced was measured in a microplate reader at 620 nm.
as §1, with “1 mM” for “1 μM”, “3 mM)” for “3 μM)”, “200 mL” for “200 μL”, “20 mL” for “20 μL”, “180 mL” for “180 μL”, “NF-κB-induced gene expression were” for “NF-κB-induced was”
Background: A reporter such as luciferase makes a cellular process visible.

For test [2], the system named is MOLM14 F691L cells. Description: MOLM14 F691L cell viability (Cell Titer Glo). Conditions: Homo sapiens. On the procedure: (§2) Both cell lines have activated FLT3 receptors, each of which carry additional resistance mutations in the kinase domain (D835Y and F691L, respectively).
(§3) MOLM14 D835Y and MOLM14 F691L cells were grown in RPMI-1640 media supplemented with 20% fetal bovine serum (FBS). For viability/cytotoxicity assessments, cells were seeded into 1536-well white polystyrene tissue culture-treated Greiner plates using a Multidrop Combi dispenser (ThermoFisher), in final volume 5 μL of growth media per well, at a density of 1000 cells per well. After cell addition, 23 nL of test compound were transferred into individual wells (22 doses tested for each test compound, with a 1:2 dilution series starting at 10 μM) via a 1536 pin-tool. Bortezomib (final concentration 2.3 μM) was used as a positive control for cell cytotoxicity. Plates were incubated for 48 hours at standard incubator conditions covered by a stainless steel gasketed lid to prevent evaporation. 48 hours post compound addition, 3 μL of Cell Titer Glo (Promega) were added to each well and plates were incubated at room temperature for 15 minutes with the stainless-steel lid in place. Luminescence readings were taken using a Viewlux imager (PerkinElmer) with a 2 second exposure time per plate.

Test [3] deals with MOLM14 D835Y cells. Description: MOLM14 D835Y cell viability (Cell Titer Glo). To be noted: Homo sapiens. How it is done:
as §2, §3
This cell line has activated FLT3 receptors, which carries an additional resistance mutation in the kinase domain at D835Y.
as §3, with “D835Y” for “D835Y and MOLM14 F691L”, “mL” for “μL”, “mM)” for “μM)”
(In general: In ATP-based viability assays light output follows the ATP content of the culture.)

Molecules are shown by their SMILES. Like-named read-outs stand apart in the source and are kept apart here.

By IC50 is commonly meant the concentration that gives 50% inhibition. With `COc1cn2ncc(-c3nc(N[C@H]4CNCC[C@@H]4F)ncc3F)c2nc1C(C)(C)O` [Compound 6a, 2-(3-(5-fluoro-2-(((3S,4S)-4-fluoropiperidin-3-yl)amino)pyrimidin-4-yl)-6-methoxypyrazolo[1,5-a]pyrimidin-5-yl)propan-2-ol], the IC50 in test [1] (Table 21) stood at 57 nM; in test [2] (MOLM-14, Table 22, 48 h) it was 45 nM; in test [3] (MOLM-14, Table 22, 48 h), 5 nM.

On to `COc1cn2ncc(-c3cccc(N[C@@H]4CCCNC4)n3)c2nc1C1CC1` [Compound 20, (R)-6-(5-cyclopropyl-6-methoxypyrazolo[1,5-a]pyrimidin-3-yl)-N-(piperidin-3-yl)pyridin-2-amine], for which the concentration for half-maximal inhibition (IC50) in test [1] (Table 15) turned out to be 441 nM; in test [3] (MOLM-14, Table 16, 48 h), 41 nM.

`COc1cn2ncc(-c3nc(N[C@H]4CNC[C@@H]4F)c(F)cc3F)c2nc1C1CC1` [Compound 24, 6-(5-cyclopropyl-6-methoxypyrazolo[1,5-a]pyrimidin-3-yl)-3,5-difluoro-N-((3S,4S)-4-fluoropyrrolidin-3-yl)pyridin-2-amine] came in with an IC50 in test [3] (MOLM-14, Table 16, 48 h) of 2 nM.

On to `COc1cn2ncc(-c3nc(N[C@@H]4CCCNC4)c(C#N)cc3F)c2nc1C(C)(C)O` [Compound 9, (R)-5-fluoro-6-(5-(2-hydroxypropan-2-yl)-6-methoxypyrazolo[1,5-a]pyrimidin-3-yl)-2-(piperidin-3-ylamino)nicotinonitrile], for which the IC50 was 39 nM in test [1] (Table 15); 142 nM in test [2] (MOLM-14, Table 16, 48 h); 16 nM in test [3] (MOLM-14, Table 16, 48 h).

Turning to `COc1cn2ncc(-c3ccc(F)c(N[C@H]4CNCC[C@@H]4F)n3)c2nc1C1CC1` [Compound 6, 6-(5-cyclopropyl-6-methoxypyrazolo[1,5-a]pyrimidin-3-yl)-3-fluoro-N-((3S,4S)-4-fluoropiperidin-3-yl)pyridin-2-amine], the IC50 was 300 nM in test [1] (Table 15); 71 nM in test [2] (MOLM-14, Table 16, 48 h); 11 nM in test [3] (MOLM-14, Table 16, 48 h).

Take `COc1cn2ncc(-c3cccc(N[C@H]4CNCC[C@@H]4F)n3)c2nc1C1CC1` [Compound 21, 6-(5-cyclopropyl-6-methoxypyrazolo[1,5-a]pyrimidin-3-yl)-N-((3S,4S)-4-fluoropiperidin-3-yl)pyridin-2-amine]: the half-inhibitory concentration (IC50) in test [1] (Table 15) was 362 nM; in test [3] (MOLM-14, Table 16, 48 h), 46 nM.

On to `COc1cn2ncc(-c3cncc(N[C@H]4CNCC[C@@H]4F)n3)c2nc1C1CC1` [Compound 12a, 6-(5-cyclopropyl-6-methoxypyrazolo[1,5-a]pyrimidin-3-yl)-N-((3S,4S)-4-fluoropiperidin-3-yl)pyrazin-2-amine], for which the IC50 is 83 nM in test [1] (Table 21) and 12 nM in test [3] (MOLM-14, Table 22, 48 h).

Turning to `COc1cn2ncc(-c3cccc(N[C@H]4CNC[C@@H]4F)n3)c2nc1C1CC1` [Compound 19, 6-(5-cyclopropyl-6-methoxypyrazolo[1,5-a]pyrimidin-3-yl)-N-((3S,4S)-4-fluoropyrrolidin-3-yl)pyridin-2-amine], the IC50 in test [1] (Table 15) turned out to be 61 nM; in test [3] (MOLM-14, Table 16, 48 h), 58 nM.

For `COc1cn2ncc(-c3nc(N[C@H]4CNCC[C@@H]4F)c(C#N)cc3F)c2nc1C(C)(C)O` [Compound 10, 5-fluoro-2-(((3S,4S)-4-fluoropiperidin-3-yl)amino)-6-(5-(2-hydroxypropan-2-yl)-6-methoxypyrazolo[1,5-a]pyrimidin-3-yl)nicotinonitrile], the IC50 in test [1] (Table 15) came to 22 nM.

Consider `COc1cn2ncc(-c3cncc(N[C@@H]4CCCNC4)n3)c2nc1C1CC1` [Compound 11a, (R)-6-(5-cyclopropyl-6-methoxypyrazolo[1,5-a]pyrimidin-3-yl)-N-(piperidin-3-yl)pyrazin-2-amine], for which the IC50 in test [1] (Table 21) came to 331 nM; in test [3] (MOLM-14, Table 22, 48 h), 29 nM.

Consider `COc1cn2ncc(-c3nc(N[C@@H]4CCCNC4)ncc3F)c2nc1C1CC1` [Compound 14a, (R)-4-(5-cyclopropyl-6-methoxypyrazolo[1,5-a]pyrimidin-3-yl)-5-fluoro-N-(piperidin-3-yl)pyrimidin-2-amine], for which the IC50 in test [1] (Table 21) amounted to 15 nM; in test [3] (MOLM-14, Table 22, 48 h), 1 nM.

With `COc1cn2ncc(-c3nc(N[C@H]4CNCC[C@@H]4F)ncc3F)c2nc1C1CC1` [Compound 15a, 4-(5-cyclopropyl-6-methoxypyrazolo[1,5-a]pyrimidin-3-yl)-5-fluoro-N-((3S,4S)-4-fluoropiperidin-3-yl)pyrimidin-2-amine], the IC50 was found to be 5 nM in test [1] (Table 21) and 2 nM in test [3] (MOLM-14, Table 22, 48 h).

`COc1cn2ncc(-c3nc(N[C@@H]4CCCNC4)ncc3F)c2nc1C(C)(C)O` [Compound 4a, (R)-2-(3-(5-fluoro-2-(piperidin-3-ylamino)pyrimidin-4-yl)-6-methoxypyrazolo[1,5-a]pyrimidin-5-yl)propan-2-ol]: the half-inhibitory concentration (IC50) came to 101 nM in test [2] (MOLM-14, Table 22, 48 h) and 11 nM in test [3] (MOLM-14, Table 22, 48 h).

Take `COc1cn2ncc(-c3ccnc(N[C@H]4CNC[C@@H]4F)n3)c2nc1C1CC1` [Compound 8a, 4-(5-cyclopropyl-6-methoxypyrazolo[1,5-a]pyrimidin-3-yl)-N-((3S,4S)-4-fluoropyrrolidin-3-yl)pyrimidin-2-amine]: the IC50 in test [1] (Table 21) amounted to 72 nM; in test [3] (MOLM-14, Table 22, 48 h), 26 nM.

On to `COc1cn2ncc(-c3nc(N[C@H]4CNC[C@@H]4F)ncc3F)c2nc1C1CC1` [Compound 13a, 4-(5-cyclopropyl-6-methoxypyrazolo[1,5-a]pyrimidin-3-yl)-5-fluoro-N-((3S,4S)-4-fluoropyrrolidin-3-yl)pyrimidin-2-amine], for which the IC50 in test [1] (Table 21) was determined as 19 nM; in test [3] (MOLM-14, Table 22, 48 h), 4 nM.

As to `COc1cn2ncc(-c3ccnc(N[C@H]4CNCC[C@@H]4F)n3)c2nc1C1CC1` [Compound 7a, 4-(5-cyclopropyl-6-methoxypyrazolo[1,5-a]pyrimidin-3-yl)-N-((3S,4S)-4-fluoropiperidin-3-yl)pyrimidin-2-amine], the IC50 is 55 nM in test [1] (Table 21) and 7 nM in test [3] (MOLM-14, Table 22, 48 h).

Turning to `COc1cn2ncc(-c3ccc(F)c(N[C@@H]4CCCNC4)n3)c2nc1C1CC1` [Compound 5, (R)-6-(5-cyclopropyl-6-methoxypyrazolo[1,5-a]pyrimidin-3-yl)-3-fluoro-N-(piperidin-3-yl)pyridin-2-amine], the half-maximal inhibitory concentration (IC50) in test [2] (MOLM-14, Table 16, 48 h) was found to be 127 nM; in test [3] (MOLM-14, Table 16, 48 h) it was 20 nM.

`COc1cn2ncc(-c3nc(N[C@H]4CNCC[C@@H]4F)c(F)cc3F)c2nc1C1CC1` [Compound 22, 6-(5-cyclopropyl-6-methoxypyrazolo[1,5-a]pyrimidin-3-yl)-3,5-difluoro-N-((3S,4S)-4-fluoropiperidin-3-yl)pyridin-2-amine]: the IC50 amounted to 7 nM in test [1] (Table 15) and 2 nM in test [3] (MOLM-14, Table 16, 48 h).

For `COc1cn2ncc(-c3nc(N[C@H]4CNC[C@@H]4F)ncc3F)c2nc1C(C)(C)O` [Compound 5a, 2-(3-(5-fluoro-2-(((3S,4S)-4-fluoropyrrolidin-3-yl)amino)pyrimidin-4-yl)-6-methoxypyrazolo[1,5-a]pyrimidin-5-yl)propan-2-ol], the IC50 was 225 nM in test [2] (MOLM-14, Table 22, 48 h) and 25 nM in test [3] (MOLM-14, Table 22, 48 h).

With `COc1cn2ncc(-c3ccnc(N[C@H]4CNCC[C@@H]4F)n3)c2nc1C(C)(C)O` [Compound 3a, 2-(3-(2-(((3S,4S)-4-fluoropiperidin-3-yl)amino)pyrimidin-4-yl)-6-methoxypyrazolo[1,5-a]pyrimidin-5-yl)propan-2-ol], the IC50 in test [2] (MOLM-14, Table 22, 48 h) is 565 nM; in test [3] (MOLM-14, Table 22, 48 h), 86 nM.
